The source of these data is ChEMBL document CHEMBL4190187, “Discovery of pyrazolopyrimidine derivatives as novel inhibitors of ataxia telangiectasia and rad3 related protein (ATR)” (Bioorg Med Chem Lett, 2017).

Data set [1] can be described thus: Metabolic stability in human liver microsomes assessed as compound remaining at 1 uM in presence of NADPH as cofactor measured after 30 mins by LC-MS/MS method. In kind it is ADME, microsome. The settings on record: read-out: Stability. For orientation: Liver microsomes are vesicles of endoplasmic reticulum, rich in cytochrome P450 enzymes.
Data set [2] relates to Tyrosine-protein kinase ABL1 (Homo sapiens), P00519 [Y253F]. The data set is described as follows: Inhibition of recombinant human Abl Y253F mutant (27 to end residues) at 1 uM using EAIYAAPFAKKK as substrate after 40 mins in presence of [gamma-33P]ATP by scintillation counting method.
Data set [3] concerns the target Activin receptor type-1 (Homo sapiens) (UniProt Q04771). As to the kind of experiment: Inhibition of recombinant human ALK2 (147 to end residues) at 1 uM using casein as substrate after 40 mins in presence of [gamma-33P]ATP by scintillation counting method.
Data set [4] concerns the target 5'-AMP-activated protein kinase catalytic subunit alpha-1 (Homo sapiens) (UniProt Q13131). The data set is described as follows: Inhibition of recombinant full-length human AMPKalpha1 at 1 uM using AMARAASAAALARRR as substrate after 40 mins in presence of [gamma-33P]ATP by scintillation counting method.
The subject of data set [5] is Serine/threonine-protein kinase B-raf (Homo sapiens), P15056 [V600E]. As to the kind of experiment: Inhibition of recombinant human B-raf V599E mutant (416 to end residues) at 1 uM using myelin basic protein as substrate after 40 mins in presence of [gamma-33P]ATP by scintillation counting method.
In data set [6] the target is Casein kinase I isoform delta (Homo sapiens) (UniProt P48730). As to the kind of experiment: Inhibition of recombinant human CK1delta (1 to 294 residues) at 1 uM using KRRRALS(p)VASLPGL as substrate after 40 mins in presence of [gamma-33P]ATP by scintillation counting method.
Chain of Casein kinase I isoform delta (Homo sapiens) (P48730 whole entry, looked up, the tested form may be a part, canonical isoform): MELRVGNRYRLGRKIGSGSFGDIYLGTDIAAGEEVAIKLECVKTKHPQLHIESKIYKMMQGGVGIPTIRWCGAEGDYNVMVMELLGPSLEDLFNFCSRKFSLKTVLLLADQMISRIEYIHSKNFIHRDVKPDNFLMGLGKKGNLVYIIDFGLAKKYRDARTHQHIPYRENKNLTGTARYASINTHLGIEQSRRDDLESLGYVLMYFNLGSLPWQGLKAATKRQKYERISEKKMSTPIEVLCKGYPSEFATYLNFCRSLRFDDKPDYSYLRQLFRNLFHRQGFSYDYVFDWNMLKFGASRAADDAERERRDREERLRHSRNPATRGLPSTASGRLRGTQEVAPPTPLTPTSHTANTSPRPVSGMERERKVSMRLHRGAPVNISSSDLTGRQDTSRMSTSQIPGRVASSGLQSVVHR
In data set [7] the target is Receptor tyrosine-protein kinase erbB-4 (Homo sapiens) (UniProt Q15303). As to the kind of experiment: Inhibition of recombinant human ErbB4 (706 to 991 residues) at 1 uM using poly(Glu,Tyr) 4:1 as substrate after 40 mins in presence of [gamma-33P]ATP by scintillation counting method.
Chain of Receptor tyrosine-protein kinase erbB-4 (Homo sapiens) (Q15303 whole entry, the tested form may be a part): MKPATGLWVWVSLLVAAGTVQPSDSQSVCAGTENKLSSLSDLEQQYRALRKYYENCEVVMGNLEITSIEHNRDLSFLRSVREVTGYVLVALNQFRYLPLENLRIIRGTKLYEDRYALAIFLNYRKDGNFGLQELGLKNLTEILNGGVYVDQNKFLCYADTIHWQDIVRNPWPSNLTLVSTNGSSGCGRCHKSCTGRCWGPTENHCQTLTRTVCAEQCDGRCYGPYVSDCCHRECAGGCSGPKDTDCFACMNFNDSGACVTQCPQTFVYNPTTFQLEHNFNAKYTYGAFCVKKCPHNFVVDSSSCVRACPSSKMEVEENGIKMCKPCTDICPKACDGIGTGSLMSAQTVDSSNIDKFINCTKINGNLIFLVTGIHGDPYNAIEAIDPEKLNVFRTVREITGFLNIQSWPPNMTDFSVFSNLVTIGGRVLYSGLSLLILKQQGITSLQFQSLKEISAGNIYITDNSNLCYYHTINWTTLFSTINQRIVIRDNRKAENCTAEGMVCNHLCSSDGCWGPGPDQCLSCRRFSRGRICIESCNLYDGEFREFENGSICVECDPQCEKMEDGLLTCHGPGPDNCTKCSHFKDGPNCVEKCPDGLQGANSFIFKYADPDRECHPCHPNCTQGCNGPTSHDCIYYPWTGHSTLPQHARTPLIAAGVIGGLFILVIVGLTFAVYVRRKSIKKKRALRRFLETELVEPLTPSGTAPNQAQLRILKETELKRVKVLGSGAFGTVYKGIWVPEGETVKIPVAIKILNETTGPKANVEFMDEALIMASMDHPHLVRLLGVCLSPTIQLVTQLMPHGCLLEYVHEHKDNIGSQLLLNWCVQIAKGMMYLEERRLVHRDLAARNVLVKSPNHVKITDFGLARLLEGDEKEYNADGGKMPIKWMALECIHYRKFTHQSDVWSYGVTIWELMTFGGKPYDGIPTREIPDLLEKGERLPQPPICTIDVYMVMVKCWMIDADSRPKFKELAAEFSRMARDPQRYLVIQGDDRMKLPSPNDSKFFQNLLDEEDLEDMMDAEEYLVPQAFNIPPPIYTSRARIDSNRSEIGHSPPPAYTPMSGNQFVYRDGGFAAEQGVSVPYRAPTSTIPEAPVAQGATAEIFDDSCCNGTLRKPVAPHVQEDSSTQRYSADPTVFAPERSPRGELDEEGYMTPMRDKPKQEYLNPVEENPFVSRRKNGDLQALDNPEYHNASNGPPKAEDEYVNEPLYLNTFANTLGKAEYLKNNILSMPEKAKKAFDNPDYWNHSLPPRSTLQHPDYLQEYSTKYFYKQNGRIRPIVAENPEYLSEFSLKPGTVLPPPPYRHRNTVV
The target of data set [8] is G protein-coupled receptor kinase 6 (Homo sapiens) (UniProt P43250). As to the kind of experiment: Inhibition of recombinant full-length human GRK6 at 1 uM using casein as substrate after 40 mins in presence of [gamma-33P]ATP by scintillation counting method.
Chain of G protein-coupled receptor kinase 6 (Homo sapiens) (P43250 whole entry, looked up): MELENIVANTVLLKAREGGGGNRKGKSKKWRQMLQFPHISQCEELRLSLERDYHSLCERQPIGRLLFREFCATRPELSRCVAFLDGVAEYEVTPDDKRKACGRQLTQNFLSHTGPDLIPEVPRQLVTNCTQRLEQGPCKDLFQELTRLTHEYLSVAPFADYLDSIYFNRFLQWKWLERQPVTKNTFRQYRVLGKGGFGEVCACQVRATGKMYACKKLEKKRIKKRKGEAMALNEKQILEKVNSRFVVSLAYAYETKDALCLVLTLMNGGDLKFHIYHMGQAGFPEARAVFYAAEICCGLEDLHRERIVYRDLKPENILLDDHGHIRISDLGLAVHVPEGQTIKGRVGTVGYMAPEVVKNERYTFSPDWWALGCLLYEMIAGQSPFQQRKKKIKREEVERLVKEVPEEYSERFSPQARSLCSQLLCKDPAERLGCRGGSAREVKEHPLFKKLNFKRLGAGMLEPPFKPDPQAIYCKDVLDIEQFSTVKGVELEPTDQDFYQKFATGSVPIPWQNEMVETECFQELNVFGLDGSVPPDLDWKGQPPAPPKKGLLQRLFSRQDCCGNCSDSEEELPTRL
For data set [9], the target named is Homeodomain-interacting protein kinase 4 (Homo sapiens) (UniProt Q8NE63). As to the kind of experiment: Inhibition of recombinant full-length human HIPK4 at 1 uM using RRRFRPASPLRGPPK as substrate after 40 mins in presence of [gamma-33P]ATP by scintillation counting method.
Data set [10] has as its target LIM domain kinase 1 (Homo sapiens) (UniProt P53667). As to the kind of experiment: Inhibition of recombinant human LIMK1 (285 to 638 residues) at 1 uM using cofilin as substrate after 40 mins in presence of [gamma-33P]ATP by scintillation counting method.
Data set [11] concerns Hepatocyte growth factor receptor (Homo sapiens), P08581 [M1268T]. As to the kind of experiment: Inhibition of recombinant human Met M1268T mutant (974 to end residues) at 1 uM using KKKGQEEEYVFIE as substrate after 40 mins in presence of [gamma-33P]ATP by scintillation counting method.
In data set [12] the target is Serine/threonine-protein kinase Nek1 (Homo sapiens) (UniProt Q96PY6). As to the kind of experiment: Inhibition of recombinant human NEK1 (1 to 505 residues) at 1 uM using RLGRDKYKTLRQIRQ as substrate after 40 mins in presence of [gamma-33P]ATP by scintillation counting method.
Data set [13] addresses NUAK family SNF1-like kinase 2 (Homo sapiens) (UniProt Q9H093). As to the kind of experiment: Inhibition of recombinant full-length human NUAK2 at 1 uM using KKKVSRSGLYRSPSMPENLNRPR as substrate after 40 mins in presence of [gamma-33P]ATP by scintillation counting method.
In data set [14] the target is Serine/threonine-protein kinase MARK2 (Homo sapiens) (UniProt Q7KZI7). As to the kind of experiment: Inhibition of recombinant full-length human PAR-1Balpha at 1 uM using KKKVSRSGLYRSPSMPENLNRPR as substrate after 40 mins in presence of [gamma-33P]ATP by scintillation counting method.
The target of data set [15] is Phosphorylase b kinase gamma catalytic chain, liver/testis isoform (Homo sapiens) (UniProt P15735). As to the kind of experiment: Inhibition of recombinant human PhKgamma2 (1 to 301 residues) at 1 uM using KKLNRTLSFAEPG as substrate after 40 mins in presence of [gamma-33P]ATP by scintillation counting method.
For data set [16], the target named is PI3K p110 delta/p85 alpha (Mus musculus) (UniProt P26450+O35904). The data set is described as follows: Inhibition of recombinant full-length mouse p110d/p85a at 1 uM using phosphatidylinositol 4,5-bisphosphate as substrate after 40 mins in presence of [gamma-33P]ATP by scintillation counting method. It counts as protein-complex assay.
Data set [17] concerns the target cAMP-dependent protein kinase catalytic subunit alpha (Homo sapiens) (UniProt P17612). The data set is described as follows: Inhibition of recombinant full-length human PRKACA at 1 uM using LRRASLG (Kemptide) as substrate after 40 mins in presence of [gamma-33P]ATP by scintillation counting method.
Data set [18] addresses Tyrosine-protein kinase FRK (Homo sapiens) (UniProt P42685). The data set is described as follows: Inhibition of recombinant human PTK5 (218 to end residues) at 1 uM using GGEEEEYFELVKKKK as substrate after 40 mins in presence of [gamma-33P]ATP by scintillation counting method.
Data set [19] concerns the target Ribosomal protein S6 kinase alpha-3 (Homo sapiens) (UniProt P51812). The data set is described as follows: Inhibition of recombinant human Rsk2 (2 to end residues) at 1 uM using KKKNRTLSVA as substrate after 40 mins in presence of [gamma-33P]ATP by scintillation counting method.
In data set [20] the target is SRSF protein kinase 1 (Homo sapiens) (UniProt Q96SB4). As to the kind of experiment: Inhibition of recombinant human SRPK1 (2 to end residues) at 1 uM using RSRSRSRSRSRSRSR as substrate after 40 mins in presence of [gamma-33P]ATP by scintillation counting method.
Chain of SRSF protein kinase 1 (Homo sapiens) (Q96SB4 whole entry): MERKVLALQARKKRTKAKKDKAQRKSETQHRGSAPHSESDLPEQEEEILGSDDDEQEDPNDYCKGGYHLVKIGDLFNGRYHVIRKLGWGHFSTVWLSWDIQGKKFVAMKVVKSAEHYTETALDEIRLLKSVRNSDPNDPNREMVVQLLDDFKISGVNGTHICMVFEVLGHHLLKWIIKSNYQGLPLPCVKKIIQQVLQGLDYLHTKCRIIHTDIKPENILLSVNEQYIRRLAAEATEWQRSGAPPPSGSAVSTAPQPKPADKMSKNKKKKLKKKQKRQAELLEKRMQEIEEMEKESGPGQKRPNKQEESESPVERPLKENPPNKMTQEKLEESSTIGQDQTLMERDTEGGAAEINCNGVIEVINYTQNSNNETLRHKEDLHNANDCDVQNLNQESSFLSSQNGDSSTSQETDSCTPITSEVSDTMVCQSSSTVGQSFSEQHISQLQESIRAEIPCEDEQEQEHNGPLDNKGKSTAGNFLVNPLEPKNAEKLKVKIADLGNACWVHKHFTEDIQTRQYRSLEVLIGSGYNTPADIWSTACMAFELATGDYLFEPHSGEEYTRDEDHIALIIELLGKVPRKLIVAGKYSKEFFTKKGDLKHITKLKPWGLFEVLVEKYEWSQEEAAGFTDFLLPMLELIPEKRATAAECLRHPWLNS
In data set [21] the target is Tyrosine-protein kinase Tec (Homo sapiens) (UniProt P42680). The data set is described as follows: Inhibition of recombinant activated human Tec (174 to end residues) at 1 uM using EFPIYDFLPAKKK as substrate after 40 mins in presence of [gamma-33P]ATP by scintillation counting method.
Data set [22] has as its target TRAF2 and NCK-interacting protein kinase (Homo sapiens) (UniProt Q9UKE5). The data set is described as follows: Inhibition of recombinant human TNIK (1 to 367 residues) at 1 uM using RLGRDKYKTLRQIRQ as substrate after 40 mins in presence of [gamma-33P]ATP by scintillation counting method.
The target of data set [23] is Dual specificity protein kinase TTK (Homo sapiens) (UniProt P33981). As to the kind of experiment: Inhibition of recombinant full-length human TTK at 1 uM using myelin basic protein as substrate after 40 mins in presence of [gamma-33P]ATP by scintillation counting method.
Chain of Dual specificity protein kinase TTK (Homo sapiens) (P33981 whole entry): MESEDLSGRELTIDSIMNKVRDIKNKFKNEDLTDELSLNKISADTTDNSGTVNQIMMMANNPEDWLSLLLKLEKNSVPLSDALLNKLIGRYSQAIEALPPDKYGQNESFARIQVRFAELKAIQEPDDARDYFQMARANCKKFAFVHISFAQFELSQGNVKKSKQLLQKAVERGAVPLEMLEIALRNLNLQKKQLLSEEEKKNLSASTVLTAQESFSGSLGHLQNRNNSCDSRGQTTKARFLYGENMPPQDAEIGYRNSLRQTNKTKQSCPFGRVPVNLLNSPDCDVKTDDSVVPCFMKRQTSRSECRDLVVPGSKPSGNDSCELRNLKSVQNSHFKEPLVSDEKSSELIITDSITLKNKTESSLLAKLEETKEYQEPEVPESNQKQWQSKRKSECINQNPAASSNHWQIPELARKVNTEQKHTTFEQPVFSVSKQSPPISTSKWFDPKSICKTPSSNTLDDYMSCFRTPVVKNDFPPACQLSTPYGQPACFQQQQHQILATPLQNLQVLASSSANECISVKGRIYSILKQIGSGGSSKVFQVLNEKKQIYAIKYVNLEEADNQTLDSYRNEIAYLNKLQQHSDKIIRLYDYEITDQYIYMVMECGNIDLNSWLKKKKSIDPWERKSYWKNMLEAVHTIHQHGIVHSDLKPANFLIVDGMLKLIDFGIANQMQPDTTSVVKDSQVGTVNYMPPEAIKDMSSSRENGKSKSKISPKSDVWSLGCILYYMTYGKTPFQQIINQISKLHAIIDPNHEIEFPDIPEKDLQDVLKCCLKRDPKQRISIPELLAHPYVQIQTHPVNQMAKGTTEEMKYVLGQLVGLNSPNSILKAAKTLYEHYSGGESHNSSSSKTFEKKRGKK
Data set [24] has as its target Wee1-like protein kinase 2 (Homo sapiens) (UniProt P0C1S8). As to the kind of experiment: Inhibition of recombinant full-length human Wee1B at 1 uM using LSNLYHQGKFLQTFCGSPLYRRR as substrate after 120 mins in presence of [gamma-33P]ATP by scintillation counting method.

Usually inhibition stands for the drop in the measured response relative to a control, in per cent.

Chain of Activin receptor type-1 (Homo sapiens) (Q04771 whole entry): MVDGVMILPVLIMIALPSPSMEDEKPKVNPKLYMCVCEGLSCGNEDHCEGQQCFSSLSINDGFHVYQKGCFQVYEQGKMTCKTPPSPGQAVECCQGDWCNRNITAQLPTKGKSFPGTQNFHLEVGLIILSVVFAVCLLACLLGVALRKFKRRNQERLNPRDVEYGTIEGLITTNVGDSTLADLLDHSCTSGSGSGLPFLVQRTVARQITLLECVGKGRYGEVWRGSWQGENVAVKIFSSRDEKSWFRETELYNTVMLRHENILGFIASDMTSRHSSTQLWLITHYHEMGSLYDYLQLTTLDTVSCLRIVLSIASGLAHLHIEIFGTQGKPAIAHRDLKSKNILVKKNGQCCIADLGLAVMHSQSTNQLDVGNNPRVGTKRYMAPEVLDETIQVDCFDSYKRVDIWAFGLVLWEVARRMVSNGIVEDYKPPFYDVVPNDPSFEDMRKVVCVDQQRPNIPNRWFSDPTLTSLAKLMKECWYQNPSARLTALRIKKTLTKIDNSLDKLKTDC
Chain of LIM domain kinase 1 (Homo sapiens) (P53667 whole entry, looked up, the tested form may be a part): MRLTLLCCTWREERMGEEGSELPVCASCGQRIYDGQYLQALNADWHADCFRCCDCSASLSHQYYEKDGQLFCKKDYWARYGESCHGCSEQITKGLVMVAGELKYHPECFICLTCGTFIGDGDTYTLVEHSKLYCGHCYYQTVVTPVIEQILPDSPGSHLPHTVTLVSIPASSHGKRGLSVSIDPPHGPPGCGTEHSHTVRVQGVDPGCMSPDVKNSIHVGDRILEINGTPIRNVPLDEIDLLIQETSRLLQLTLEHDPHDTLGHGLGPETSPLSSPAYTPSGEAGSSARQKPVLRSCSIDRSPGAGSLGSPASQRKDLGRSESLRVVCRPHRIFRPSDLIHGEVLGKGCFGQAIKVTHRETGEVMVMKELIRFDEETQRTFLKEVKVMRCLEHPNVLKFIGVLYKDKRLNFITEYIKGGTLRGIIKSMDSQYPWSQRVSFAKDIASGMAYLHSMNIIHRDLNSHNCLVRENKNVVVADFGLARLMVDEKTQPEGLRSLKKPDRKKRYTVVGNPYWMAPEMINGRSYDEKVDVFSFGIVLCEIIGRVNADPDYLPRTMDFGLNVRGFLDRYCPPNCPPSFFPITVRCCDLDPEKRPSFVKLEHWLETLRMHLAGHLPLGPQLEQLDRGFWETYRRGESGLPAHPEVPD

For the compound `CS(=O)(=O)c1ccc(-n2nc(-c3cnc4[nH]ccc4c3)c3c(N)ncnc32)cc1`, the remaining at 0.5 h, 1 µM in data set [1] worked out at 83%. Moreover, the inhibition was 85% in data set [2]; 0% in [3]; -9% in data set [4]; 93% in [5]; 66% in [6]; 4% in [7]. Besides, the inhibition in data set [8] is -3%; in [9], -4%; in [10], 24%; in [11], -2%; in data set [12] it was -4%; in [13], 18%. Moreover, the inhibition in data set [14] is 6%; in [15], 16%; in data set [16] it was 27%; in data set [17], 4%; in [18], 94%; in data set [19] it was -5%. Moreover, the inhibition was 1% in [20]; 55% in [21]; -9% in data set [22]; -6% in [23]; -3% in [24].
